Results published in US7109243B2 (IRM LLC, priority 2003, dated 2006).

Key:
Cathepsin S = Cathepsin S (Homo sapiens, UniProt P25774); assay: Cathepsin S inhibition assay (fluorogenic peptide substrate); format: biochemical; settings: Table II, compounds of Formula I; read-out: Ki Cat. S
In short: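 Ki values come from nonlinear fitting of inhibited hydrolysis rates, taking free and total inhibitor concentrations as equal. Rates measured as rising fluorescence at 380/450 nm after reaction start with 50 μM final acetyl-HPVK-aminocarbamoylcoumarin.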

Cathepsin K = biological target: T1, Cathepsin K (Homo sapiens, UniProt P43235); assay: Cathepsin K inhibition assay (fluorogenic peptide substrate); selectivity ratio vs cathepsin S; format: biochemical; settings: ratio of cathepsin K inhibition constant to cathepsin S inhibition constant; Table II
T1 sequence (P43235 115-329): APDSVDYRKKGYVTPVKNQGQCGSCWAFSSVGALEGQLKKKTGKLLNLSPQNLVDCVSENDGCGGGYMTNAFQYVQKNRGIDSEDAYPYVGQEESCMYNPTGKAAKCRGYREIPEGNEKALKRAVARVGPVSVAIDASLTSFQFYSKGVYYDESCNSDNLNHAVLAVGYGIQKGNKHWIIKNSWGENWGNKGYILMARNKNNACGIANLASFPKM
In short: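 Fluorogenic kinetic assay, started with acetyl-Lys-His-Pro-Lys-aminocarbamoylcoumarin at 40 μM final, hydrolysis followed at ex 380/em 450 nm. Apparent inhibition constants from progress curves, converted to competitive inhibition constants. Selectivity expressed as isozyme inhibition constant divided by cathepsin S inhibition constant.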

Cathepsin S, sequence (P25774 115-331, species assumed): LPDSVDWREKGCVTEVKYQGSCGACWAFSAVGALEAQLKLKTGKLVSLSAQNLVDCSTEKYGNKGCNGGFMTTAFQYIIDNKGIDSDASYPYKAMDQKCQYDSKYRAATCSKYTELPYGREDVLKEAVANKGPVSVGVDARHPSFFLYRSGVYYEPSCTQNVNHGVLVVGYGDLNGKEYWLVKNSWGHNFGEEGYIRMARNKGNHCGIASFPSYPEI

## COc1ccc(NCCNC(=O)[C@H](CC2CCCCC2)NC(=O)c2cc(Cl)ccc2F)cc1 [Compound 156, (S)-5-Chloro-N-{2-cyclohexyl-1-[2-(4-methoxy-phenylamino)-ethylcarbamoyl]-ethyl}-2-fluoro-benzamide]
Cathepsin S
  Ki: < 100 nM
Cathepsin K
  Selectivity for Cat. S over Cat. K: +++ (+++, >1000)

## O=C(N[C@@H](CC1CCCCC1)C(=O)NCCNc1ccc(F)cc1)C1CC1 [Compound 298, Cyclopropanecarboxylic acid (S)-{2-cyclohexyl-1-[2-(4-fluoro-phenylamino)-ethylcarbamoyl]-ethyl}-amide]
Cathepsin S
  Ki: < 100 nM
Cathepsin K
  Selectivity for Cat. S over Cat. K: ++ (++, >100)

## COc1ccc(NCCNC(=O)[C@H](Cc2ccc(-c3ccccc3[N+](=O)[O-])cc2)NC(=O)c2cccc(C)c2)cc1 [Compound 273, (S)-N-[1-[2-(4-Methoxy-phenylamino)-ethylcarbamoyl]-2-(2′-nitro-biphenyl-4-yl)-ethyl]-3-methyl-benzamide]
Cathepsin S
  Ki: < 1000 nM
Cathepsin K
  Selectivity for Cat. S over Cat. K: ++ (++, >100)

## COc1ccc(NCCNC(=O)[C@H](CC2CCCCC2)NC(=O)c2cnn(-c3ccccc3)c2C(F)(F)F)cc1 [Compound 115, (S)-1-Phenyl-5-trifluoromethyl-1H-pyrazole-4-carboxylic acid {2-cyclohexyl-1-[2-(4-methoxy-phenylamino)-ethylcarbamoyl]-ethyl}-amide]
Cathepsin S
  Ki: < 100 nM
Cathepsin K
  Selectivity for Cat. S over Cat. K: +++ (+++, >1000)

## O=C(Cc1cccs1)N[C@@H](CC1CCCCC1)C(=O)NCCNc1ccc(F)cc1 [Compound 76, 3-Cyclohexyl-N-[2-(4-fluoro-phenylamino)-ethyl]-2-(S)-(2-thiophen-2-yl-acetylamino)-propionamide]
Cathepsin S
  Ki: < 100 nM
Cathepsin K
  Selectivity for Cat. S over Cat. K: +++ (+++, >1000)

## COc1ccc(NCCNC(=O)C(NC(=O)c2cccc(C)c2)c2ccc(OC)cc2OC)cc1 (stereo not drawn) [Compound 225, N-{(2,4-Dimethoxy-phenyl)-[2-(4-methoxy-phenylamino)-ethylcarbamoyl]-methyl}-3-methyl-benzamide]
Cathepsin S
  Ki: < 10000 nM
Cathepsin K
  Selectivity for Cat. S over Cat. K: + (+, >10)

## COc1ccc(NCCNC(=O)[C@H](Cc2ccc(-c3ccc(OC)c(OC)c3)cc2)NC(=O)c2cccc(C)c2)cc1 [Compound 281, (S)-N-{2-(3′,4′-Dimethoxy-biphenyl-4-yl)-1-[2-(4-methoxy-phenylamino)-ethylcarbamoyl]-ethyl}-3-methyl-benzamide]
Cathepsin S
  Ki: < 1000 nM
Cathepsin K
  Selectivity for Cat. S over Cat. K: ++ (++, >100)

## O=C(Cc1ccsc1)N[C@@H](CC1CCCCC1)C(=O)NCCNc1ccc(F)cc1 [Compound 77, 3-Cyclohexyl-N-[2-(4-fluoro-phenylamino)-ethyl]-2-(S)-(2-thiophen-3-yl-acetylamino)-propionamide]
Cathepsin S
  Ki: < 100 nM
Cathepsin K
  Selectivity for Cat. S over Cat. K: ++ (++, >100)

## COc1ccc(NCCNC(=O)[C@H](Cc2cc(F)cc(F)c2)NC(=O)c2cccc(C)c2)cc1 [Compound 230, (S)-N-{2-(3,5-Difluoro-phenyl)-1-[2-(4-methoxy-phenylamino)-ethylcarbamoyl]-ethyl}-3-methyl-benzamide]
Cathepsin S
  Ki: < 100 nM
Cathepsin K
  Selectivity for Cat. S over Cat. K: +++ (+++, >1000)

## Cc1nc(-c2ccc(C(=O)N[C@@H](CC3CCCCC3)C(=O)NCCNc3ccc(OC(F)(F)F)cc3)cc2)no1 [Compound 27]
Cathepsin S
  Ki: < 100 nM
Cathepsin K
  Selectivity for Cat. S over Cat. K: +++ (+++, >1000)

## O=C(NCCNc1ccc(F)cc1)[C@H](CC1CCCCC1)NC(=O)[C@H](O)c1ccccc1 [Compound 317, 3-Cyclohexyl-N-[2-(4-fluoro-phenylamino)-ethyl]-2-(S)-(2-(R)-hydroxy-2-phenyl-acetylamino)-propionamide]
Cathepsin S
  Ki: < 100 nM
Cathepsin K
  Selectivity for Cat. S over Cat. K: ++ (++, >100)

## CC[C@@H](C(=O)N[C@@H](CCC1CCCCC1)C(=O)NCCNc1ccc(OC)cc1)c1ccccc1 [Compound 75, N-{3-Cyclohexyl-1-(S)-[2-(4-methoxy-phenylamino)-ethylcarbamoyl]-propyl}-2-(R)-phenyl-butyramide]
Cathepsin S
  Ki: < 100 nM
Cathepsin K
  Selectivity for Cat. S over Cat. K: +++ (+++, >1000)

## COc1ccc(NCCNC(=O)[C@H](Cc2ccc(Cl)cc2Cl)NC(=O)c2cccc(C)c2)cc1 [Compound 229, (S)-N-{2-(2,4-Dichloro-phenyl)-1-[2-(4-methoxy-phenylamino)-ethylcarbamoyl]-ethyl}-3-methyl-benzamide]
Cathepsin S
  Ki: < 100 nM
Cathepsin K
  Selectivity for Cat. S over Cat. K: +++ (+++, >1000)

## CC(C(=O)N[C@@H](CC1CCCCC1)C(=O)NCCNc1ccc(F)cc1)c1ccc(O)cc1 (stereo partly drawn) [Compound 311, N-{2-cyclohexyl-1-(S)-[2-(4-fluoro-phenylamino)-ethylcarbamoyl]-ethyl}-2-(4-hydroxy-phenyl)-propionamide]
Cathepsin S
  Ki: < 100 nM
Cathepsin K
  Selectivity for Cat. S over Cat. K: + (+, >10)

## COc1ccc(NCCNC(=O)[C@H](CCCC2CCCCC2)NC(=O)c2cccc(C)c2)cc1 [Compound 203, (S)-N-{4-Cyclohexyl-1-[2-(4-methoxy-phenylamino)-ethylcarbamoyl]-butyl}-3-methyl-benzamide]
Cathepsin S
  Ki: < 100 nM
Cathepsin K
  Selectivity for Cat. S over Cat. K: +++ (+++, >1000)

## COc1ccc(NCCNC(=O)[C@H](CC2CCCCC2)NC(=O)c2ccc(OC)cc2)cc1 [Compound 153, (S)-N-{2-Cyclohexyl-1-[2-(4-methoxy-phenylamino)-ethylcarbamoyl]-ethyl}-4-methoxy-benzamide]
Cathepsin S
  Ki: < 100 nM
Cathepsin K
  Selectivity for Cat. S over Cat. K: + (+, >10)

## COc1ccc(NCCNC(=O)[C@H](CC2CCCCC2)NC(=O)c2ccc(F)c(C)c2)cc1 [Compound 167, (S)-N-{2-Cyclohexyl-1-[2-(4-methoxy-phenylamino)-ethylcarbamoyl]-ethyl}-4-fluoro-3-methyl-benzamide]
Cathepsin S
  Ki: < 100 nM
Cathepsin K
  Selectivity for Cat. S over Cat. K: +++ (+++, >1000)

## O=C(N[C@@H](CC1CCCCC1)C(=O)NCCNc1ccc(OC(F)(F)F)cc1)c1cccc(-c2ccccc2Cl)c1 [Compound 34, 2′-Chloro-biphenyl-3-carboxylic acid (S)-{2-cyclohexyl-1-[2-(4-trifluoromethoxy-phenylamino)-ethylcarbamoyl]-ethyl}-amide]
Cathepsin S
  Ki: < 100 nM
Cathepsin K
  Selectivity for Cat. S over Cat. K: +++ (+++, >1000)

## CC(=O)N1CCC(C(=O)N[C@@H](CC2CCCCC2)C(=O)NCCNc2ccc(OC(F)(F)F)cc2)CC1 [Compound 14, 1-Acetyl-piperidine-4-carboxylic acid (S)-{2-cyclohexyl-1-[2-(4-trifluoromethoxy-phenylamino)-ethylcarbamoyl]-ethyl}-amide]
Cathepsin S
  Ki: < 1000 nM
Cathepsin K
  Selectivity for Cat. S over Cat. K: ++ (++, >100)

## COc1ccc(NCCNC(=O)[C@H](Cc2ccccc2)NC(=O)NCc2ccc(F)cc2)cc1 [Compound 91, (S)-2-[3-(4-Fluoro-benzyl)-ureido]-N-[2-(4-methoxy-phenylamino)-ethyl]-3-phenyl-propionamide]
Cathepsin S
  Ki: < 10000 nM
Cathepsin K
  Selectivity for Cat. S over Cat. K: + (+, >10)

## COc1cccc(-c2cccc(C(=O)N[C@@H](CC3CCCCC3)C(=O)NCCNc3ccc(OC(F)(F)F)cc3)c2)c1 [Compound 74, 3′-Methoxy-biphenyl-3-carboxylic acid (S)-{2-cyclohexyl-1-[2-(4-trifluoromethoxy-phenylamino)-ethylcarbamoyl]-ethyl}-amide]
Cathepsin S
  Ki: < 100 nM
Cathepsin K
  Selectivity for Cat. S over Cat. K: +++ (+++, >1000)

## COc1ccc(NCCNC(=O)[C@H](Cc2ccc(Oc3ccc(OC)cc3)cc2)NC(=O)c2cccc(C)c2)cc1 [Compound 328, (S)-N-{2-[4-(4-Methoxy-phenoxy)-phenyl]-1-[2-(4-methoxy-phenylamino)-ethylcarbamoyl]-ethyl}-3-methyl-benzamide]
Cathepsin S
  Ki: < 1000 nM
Cathepsin K
  Selectivity for Cat. S over Cat. K: ++ (++, >100)

## COc1ccc(NCCNC(=O)[C@H](Cc2ccc(Oc3cc(C)cc(C)c3)cc2)NC(=O)c2cccc(C)c2)cc1 [Compound 330, (S)-N-{2-[4-(3,5-Dimethyl-phenoxy)-phenyl]-1-[2-(4-methoxy-phenylamino)-ethylcarbamoyl]-ethyl}-3-methyl-benzamide]
Cathepsin S
  Ki: < 1000 nM
Cathepsin K
  Selectivity for Cat. S over Cat. K: ++ (++, >100)

## COc1ccc(NCCNC(=O)[C@H](CC2CCCCC2)NC(=O)c2cc(C)ccc2Cl)cc1 [Compound 148, (S)-2-Chloro-N-{2-cyclohexyl-1-[2-(4-methoxy-phenylamino)-ethylcarbamoyl]-ethyl}-5-methyl-benzamide]
Cathepsin S
  Ki: < 100 nM
Cathepsin K
  Selectivity for Cat. S over Cat. K: +++ (+++, >1000)

## COc1ccc(NCCNC(=O)[C@H](Cc2ccc(Cl)cc2)NC(=O)c2ccc(-c3cccc(C(F)(F)F)c3)o2)cc1 [Compound 4, N-((S)-1-(2-(4-methoxyphenylamino)ethylcarbamoyl)-2-(4-chlorophenyl)ethyl)-5-(3-(trifluoromethyl)phenyl)furan-2-carboxamide]
Cathepsin S
  Ki: < 100 nM
Cathepsin K
  Selectivity for Cat. S over Cat. K: +++ (+++, >1000)

## CS(=O)(=O)Nc1ccc(C(=O)N[C@@H](CC2CCCCC2)C(=O)NCCNc2ccc(F)cc2)cc1 [Compound 299, N-(S)-{2-cyclohexyl-1-[2-(4-fluoro-phenylamino)-ethylcarbamoyl]-ethyl}-4-methanesulfonylamino-benzamide]
Cathepsin S
  Ki: < 100 nM
Cathepsin K
  Selectivity for Cat. S over Cat. K: + (+, >10)

## COc1ccc(NCCNC(=O)C(NC(=O)c2cccc(C)c2)c2ccc(OC)cc2)cc1 (stereo not drawn) [Compound 211, N-{(4-Methoxy-phenyl)-[2-(4-methoxy-phenylamino)-ethylcarbamoyl]-methyl}-3-methyl-benzamide]
Cathepsin S
  Ki: < 1000 nM
Cathepsin K
  Selectivity for Cat. S over Cat. K: ++ (++, >100)
